Data taken from patent publication EP4768499A1, “MACROCYCLIC PEPTIDE COMPOUND HAVING CELL MEMBRANE PERMEABILITY AND METABOLIC STABILITY, AND LIBRARY CONTAINING SAME” (Chugai Seiyaku Kabushiki Kaisha, priority 2023, dated 2025).
Starred links: 1 amine or outer side, 2 acyl side, 3 side chain; linkers in the order of their positions; H or OH if unused. Positions of bridges follow the written chain, without caps; N, C: chain ends. Non-standard residues stand in square brackets, D forms with d. Residues, ends and D or L forms follow the SMILES beside them. *: point of attachment. NMeF = CN[C@@H](Cc1ccccc1)C(=O)O; NMeGABA = CN(CCCC(=O)[*:2])[*:1]; NMeT = CN[C@H](C(=O)O)[C@@H](C)O; hPhe = N[C@@H](CCc1ccccc1)C(=O)O; NMeβAla = CN(CCC(=O)[*:2])[*:1]; NMeD = CN[C@@H](CC(=O)O)C(=O)O; NMeL = CN[C@@H](CC(C)C)C(=O)O; dNMeV = CN[C@@H](C(=O)O)C(C)C; NMeV = CN[C@H](C(=O)O)C(C)C; d(β3hA) = C[C@@H](N)CC(=O)O; NMeAbu = CC[C@H](NC)C(=O)O; NMeA = CN[C@@H](C)C(=O)O; Piperidide = C1CCN(*)CC1; dNMeA = CN[C@H](C)C(=O)O; Abu = CC[C@H](N)C(=O)O; Sar = CNCC(=O)O; tBu = CC(C)(C)*

Experiments:
[1] = Metabolic stability test: liver microsomal stability assay; type: in vitro ADME, mouse; settings: mouse liver microsomes 0.5 mg protein/mL, compound 1 µM; for microsomal CLint at 1 µM: male, pH 7.4, presence of NADPH, read-out: Mouse Hepatic Microsome CLh,int NADPH(+); for Mouse Hepatic Microsome CLh,int NADPH(-): absence of NADPH
Description: Under the presence and absence of NADPH, a microsome solution prepared to a concentration of 0.5 mg protein/mL using 100 mM phosphate buffer (pH 7.4) with mouse liver microsomes (male, Corning Incorporated, USA) and the compound at a concentration of 1 µM were subjected to a metabolic reaction for 22 minutes, 44 minutes, or 66 minutes. Protein removal processing was performed over time using acetonitrile, and the remaining amount of unchanged compound was analyzed using LCMS to calculate the intrinsic hepatic clearance (CLh, int) (Table 6).

[2] = Membrane permeability test using Caco-2 cells with preincubation; type: in vitro ADME; settings: Caco-2; preincubation 20 to 24 hours; Apical FaSSIF/HBSS pH 6.0, Basal HBSS 4% BSA pH 7.4; 180 minutes; read-out: Caco2 Papp
Description: (§1) The permeability coefficient (Caco-2 Papp (cm/sec)) is calculated using a numerical expression 1. [Expression 1] Papp = (1)/(C1 (0) × S) × (dQ)/(dt) [formula] dQ/dt represents the permeation rate of drug (the amount of drug appearing on the Basal side per unit time), S represents the total surface area of cells, and C1(0) represents the concentration of drug added on the Apical side.
(§2) Using a mixed medium of FaSSIF containing 1% DMSO and DMEM as the apical medium, and DMEM as the basal medium, Caco-2 cells and peptide compounds are preincubated for 20 to 24 hours under conditions of 5% CO2, 37°C, and 80 rpm. Afterward, the culture medium on the Apical side and the Basal side are aspirated and washed, the peptide compound was added to a FaSSIF/HBSS buffer solution containing 1% DMSO (1% DMSO) (pH 6.0) at the Apical side, a HBSS buffer solution containing 4% BSA (pH 7.4) was added to the Basal side, and measurement of membrane permeability is started. Each well is shaken under 5% CO2 at 37°C and 80 rpm, and at 180 minutes after the start of shaking, a sample on the Basal side is collected. The amount of peptide compounds in the sample was measured using LCMS, and the membrane permeability coefficient was calculated from the permeation amount (Table 7). When calculating the membrane permeability coefficient (Papp) from the permeation amount, the following expression can be used. Papp = (dQ)/(dt) × (1)/(C1 (0) × S) [formula]
(§3) dQ/dt represents the permeation rate of drug (the amount of drug appearing on the Basal side per unit time), C1(0) represents the concentration of drug added on the Apical side, and S represents the total surface area of cells.

Caco-2 cells = assay: as above; type: in vitro ADME; settings: Caco-2 cells, preincubation 20 to 24 hours; apical FaSSIF/HBSS 1% DMSO pH 6.0, basal HBSS 4% BSA pH 7.4; basal sample at 180 minutes
Description: as §1, §2, §3

SMILES | microsomal CLint at 1 µM [1] [µL/min/mg] | Mouse Hepatic Microsome CLh,int NADPH(-) [1] [µL/min/mg Protein] | Papp A→B [2] [×10⁻⁶ cm/s] | Caco2 Papp (10^-6 cm/sec) (Caco-2 cells)
CC[C@H](C)[C@@H]1NC(=O)CN(C)C(=O)C[C@@H](C(=O)N2CCCCC2)N(C)C(=O)[C@H](CC(C)C)NC(=O)[C@H](CC(C)C)N(C)C(=O)[C@H]([C@@H](C)O)NC(=O)[C@H](Cc2ccccc2)N(C)C(=O)[C@H](CC(C)C)NC(=O)[C@H](C(C)C)N(C)C(=O)[C@H](C)N(C)C(=O)[C@H](CC(C)C)N(C)C(=O)[C@H](CCc2ccccc2)NC(=O)[C@H](CC(C)C)N(C)C1=O [pd160] ([Sar]I[NMeL][hPhe][NMeL][NMeA][NMeV]L[NMeF]T[NMeL]L[NMeD]-Piperidide; lactam N-13) | 21.5 | 22.3 | 0.06 | 0.06 10^-6 cm/sec
CC(C)C[C@@H]1NC(=O)[C@H](CC(C)C)N(C)C(=O)[C@H]([C@@H](C)O)NC(=O)[C@H](C(C)C)N(C)C(=O)[C@H](Cc2ccccc2)N(C)C(=O)[C@@H](C(C)C)NC(=O)C[C@@H](C(=O)N2CCCCC2)N(C)C(=O)[C@H](C)N(C)C(=O)[C@H](Cc2ccccc2)N(C)C(=O)[C@H](C)NC(=O)[C@H](COC(C)(C)C)NC(=O)[C@H](CC(C)C)N(C)C(=O)[C@H](C(C)C)NC(=O)CN(C)C1=O [pd086] ([dV][NMeF][NMeV]T[NMeL]L[Sar]V[NMeL]S(tBu)A[NMeF][NMeA][NMeD]-Piperidide; lactam N-14) | 20.1 | 20.0 | 0.06 | 0.06 10^-6 cm/sec
CC[C@H](C)[C@@H]1NC(=O)[C@@H]2CCCN2C(=O)[C@H](C(C)C)N(C)C(=O)[C@H](CC(C)C)NC(=O)[C@@H](C)N(C)C(=O)C[C@@H](C)NC(=O)[C@H](C(C)C)N(C)C(=O)[C@H](Cc2ccccc2)N(C)C(=O)[C@H](COC(C)(C)C)NC(=O)[C@H](CC(C)C)N(C)C(=O)[C@H](C)N(C)C(=O)[C@H](CC(C)C)N(C)C(=O)[C@H]([C@@H](C)O)NC(=O)[C@H](Cc2ccccc2)N(C)C1=O [pd054] (cyclo(I[NMeF]T[NMeL][NMeA][NMeL]S(tBu)[NMeF][NMeV][d(β3hA)][dNMeA]L[NMeV]P)) | 32.5 | 25.1 | 0.49 | 0.49 10^-6 cm/sec
CC[C@H](C)[C@@H]1NC(=O)[C@H](C)N(C)C(=O)[C@H]([C@@H](C)O)N(C)C(=O)[C@H](CC(C)C)N(C)C(=O)[C@H]([C@@H](C)CC)NC(=O)[C@H](Cc2ccccc2)N(C)C(=O)[C@H](Cc2ccccc2)N(C)C(=O)[C@H](C)NC(=O)[C@H](COC(C)(C)C)NC(=O)[C@H](CC)N(C)C(=O)[C@H](C(C)C)NC(=O)CCCN(C)C(=O)C[C@@H](C)NC(=O)[C@H](C(C)C)N(C)C1=O [pd050] (cyclo(A[NMeF][NMeF]I[NMeL][NMeT][NMeA]I[NMeV][d(β3hA)][NMeGABA]V[NMeAbu]S(tBu))) | 13.2 | 15.9 | 0.54 | 0.54 10^-6 cm/sec
CC[C@H]1C(=O)N(C)[C@@H](C(C)C)C(=O)N[C@@H](CC(C)C)C(=O)N(C)[C@H](C(=O)N2CCCCC2)CC(=O)N(C)[C@H](C(C)C)C(=O)N(C)[C@@H](CC(C)C)C(=O)N[C@@H](CCc2ccccc2)C(=O)N(C)[C@@H](C(C)C)C(=O)N(C)[C@@H](CC(C)C)C(=O)N[C@@H]([C@@H](C)O)C(=O)N(C)[C@@H](C)C(=O)N(C)[C@@H](CC(C)C)C(=O)N[C@@H](COC(C)(C)C)C(=O)N(C)[C@@H](Cc2ccccc2)C(=O)N1C [pd093] ([dNMeV][NMeL][hPhe][NMeV][NMeL]T[NMeA][NMeL]S(tBu)[NMeF][NMeAbu][NMeV]L[NMeD]-Piperidide; lactam N-14) | 26.8 | 20.4 | < 0.14 | <0.14 10^-6 cm/sec
CC(C)C[C@@H]1NC(=O)[C@H](C(C)C)N(C)C(=O)[C@H](Cc2ccccc2)N(C)C(=O)[C@H](CC(C)C)NC(=O)[C@H](CC(C)C)N(C)C(=O)[C@H](C)N(C)C(=O)[C@H]([C@@H](C)O)NC(=O)[C@H](CC(C)C)N(C)C(=O)[C@H](C(C)C)N(C)C(=O)[C@H](CC(C)C)NC(=O)[C@H](Cc2ccccc2)N(C)C(=O)[C@@H](C(C)C)N(C)C(=O)C[C@@H](C(=O)N2CCCCC2)NC1=O [pd108] ([dNMeV][NMeF]L[NMeV][NMeL]T[NMeA][NMeL]L[NMeF][NMeV]LD-Piperidide; lactam N-13) | 39.9 | 35.5 | 0.03 | 0.03 10^-6 cm/sec
CC[C@H](C)[C@@H]1NC(=O)[C@H](CC(C)C)N(C)C(=O)[C@H](CC(C)C)NC(=O)[C@H](C)N(C)C(=O)[C@H](Cc2ccccc2)N(C)C(=O)[C@@H]2CCCN2C(=O)[C@H](CC(C)C)N(C)C(=O)[C@H](CCc2ccccc2)NC(=O)CCN(C)C(=O)C[C@@H](C)NC(=O)[C@H](CC(C)C)N(C)C(=O)[C@H]([C@@H](C)O)NC(=O)[C@H](C)N(C)C(=O)[C@H](C(C)C)N(C)C1=O [pd056] (cyclo(I[NMeV][NMeA]T[NMeL][d(β3hA)][NMeβAla][hPhe][NMeL]P[NMeF][NMeA]L[NMeL])) | 55.9 | 30.2 | 0.27 | 0.27 10^-6 cm/sec
CC[C@@H]1NC(=O)[C@H](Cc2ccccc2)N(C)C(=O)[C@H]([C@@H](C)CC)NC(=O)[C@H](CC(C)C)N(C)C(=O)[C@H](CC(C)C)NC(=O)CCN(C)C(=O)C[C@@H](C(=O)N2CCCCC2)NC(=O)[C@H](CC(C)C)N(C)C(=O)[C@H](C)N(C)C(=O)[C@H]([C@@H](C)O)NC(=O)[C@H](CC(C)C)N(C)C(=O)[C@H](C(C)C)NC(=O)[C@H](Cc2ccccc2)N(C)C1=O [pd101] ([NMeβAla]L[NMeL]I[NMeF][Abu][NMeF]V[NMeL]T[NMeA][NMeL]D-Piperidide; lactam N-13) | 41.1 | 31.5 | 0.16 | 0.16 10^-6 cm/sec
CC[C@H](C)[C@@H]1NC(=O)[C@H](CC(C)C)N(C)C(=O)CN(C)C(=O)C[C@@H](C(=O)N2CCCCC2)N(C)C(=O)CNC(=O)[C@H](C)N(C)C(=O)[C@H](C(C)C)N(C)C(=O)[C@H](C)N(C)C(=O)[C@H](Cc2ccccc2)N(C)C(=O)[C@H](CC(C)C)NC(=O)[C@H](Cc2ccccc2)N(C)C(=O)[C@H](C(C)C)NC(=O)[C@H](CC(C)C)N(C)C1=O [pd156] ([Sar][NMeL]I[NMeL]V[NMeF]L[NMeF][NMeA][NMeV][NMeA]G[NMeD]-Piperidide; lactam N-13) | 34.1 | 23.7 | 0.39 | 0.39 10^-6 cm/sec
CC[C@@H]1NC(=O)[C@H](CC(C)C)N(C)C(=O)C[C@@H](C(=O)N2CCCCC2)N(C)C(=O)[C@H](C(C)C)NC(=O)[C@H](CC(C)C)N(C)C(=O)[C@H](C)NC(=O)[C@H](CC)N(C)C(=O)[C@H](C(C)C)NC(=O)[C@H](CC(C)C)N(C)C(=O)[C@H](C)N(C)C(=O)[C@H](Cc2ccccc2)N(C)C(=O)[C@H](C(C)C)NC(=O)[C@@H]2CCCN2C(=O)[C@H](C(C)C)N(C)C1=O [pd078] ([NMeL][Abu][NMeV]PV[NMeF][NMeA][NMeL]V[NMeAbu]A[NMeL]V[NMeD]-Piperidide; lactam N-14) | 28.3 | 22.9 | 2.75 | 2.75 10^-6 cm/sec
